Source: publication PMC8175350, “Drug repurposing screens identify chemical entities for the development of COVID-19 interventions” (Nature Communications, 2021)
Where a name gives a salt, the structure may show the parent alone. Read-outs that look alike come from different tables or passages of the source.

Key:
HeLa-ACE2 cells [1] = assay: cells; conditions: Homo sapiens; for EC50: HeLa-ACE2, read-out: HeLa-ACE2 cell count EC50 GeoMean, detail block; for Emax: HeLa-ACE2, 24 h, read-out: HeLa-ACE2 cell count Sinf Average
HEK293T [2] = conditions: human
in vitro = conditions: human, Calu-3 uninfected cytotoxicity CC50 GeoMean
Calu-3 cells [3] = conditions: for Calu-3 uninfected cytotoxicity Sinf Average: human, 48 h
SARS-CoV-2 [4] = assay: microbe, parasite or virus in culture; assay type: cell-based; conditions: for Emax: Severe acute respiratory syndrome coronavirus 2, HeLa-ACE2, 24 h, curve plateau at infinite concentration, read-out: HeLa-ACE2 CoV-2 Sinf Average
Calu-3 cells [5] = assay: cells; conditions: Homo sapiens; for EC50: Calu-3, read-out: Calu-3 cell count EC50 GeoMean, detail block; for Emax: Calu-3, 48 h, read-out: Calu-3 cell count Sinf Average
HeLa-ACE2 cells [6] = assay: cells; assay type: cell-based, human; conditions: Homo sapiens, HeLa-ACE2; read-out: HeLa-ACE2 TOA cell count EC50 GeoMean
SARS-CoV-2 [7] = assay: microbe, parasite or virus in culture; assay type: cell-based; conditions: for EC50: Severe acute respiratory syndrome coronavirus 2, Calu-3, detail block, read-out: Calu-3 CoV-2 EC50 GeoMean; for Emax: Severe acute respiratory syndrome coronavirus 2, Calu-3, 48 h, read-out: Calu-3 CoV-2 Sinf Average
[8] = Uninfected HeLa-ACE2 24 h live/dead cytotoxicity counter screen; assay type: cell-based, human; conditions: human, uninfected HeLa-ACE2 cells, detail block; read-out: HeLa-ACE2 uninfected cytotoxicity CC50 GeoMean
HeLa-ACE2 cells [9] = assay: as above; assay type: cell-based, human; conditions: curve plateau at infinite concentration
HepG2 [10] = conditions: human
SARS-CoV-2 [11] = assay: microbe, parasite or virus in culture; assay type: cell-based; conditions: for Emax: Severe acute respiratory syndrome coronavirus 2, HeLa-ACE2, 10 h, curve plateau at infinite concentration, read-out: HeLa-ACE2 TOA CoV-2 Sinf Average; for EC50: Severe acute respiratory syndrome coronavirus 2, HeLa-ACE2, detail block, read-out: HeLa-ACE2 TOA CoV-2 EC50 GeoMean
Calu-3 cells [12] = assay: Uninfected Calu-3 48 h Cell-Titer Glo cytotoxicity counter screen; conditions: curve plateau at infinite concentration
HepG2 [13] = assay: HepG2 72 h CellTiter-Glo cytotoxicity; conditions: 72 h
HEK293T [14] = assay: HEK293T 72 h CellTiter-Glo cytotoxicity; conditions: 72 h
[15] = HepG2 72 h CellTiter-Glo cytotoxicity; conditions: human, HepG2 cells
[16] = HEK293T 72 h CellTiter-Glo cytotoxicity; conditions: human, HEK293T cells
[17] = Uninfected Calu-3 48 h Cell-Titer Glo cytotoxicity counter screen; conditions: human, uninfected Calu-3 cells, Calu-3 uninfected cytotoxicity CC50 GeoMean, detail block
SARS-CoV-2 [18] = assay type: cell-based; conditions: combination with remdesivir
[19] = Severe acute respiratory syndrome coronavirus 2, HeLa-ACE2, detail block, read-out: HeLa-ACE2 CoV-2 EC50 GeoMean
[20] = selectivity index, uninfected HeLa-ACE2 CC50 / SARS-CoV-2 EC50
[21] = selectivity index, uninfected Calu-3 CC50 / Calu-3 SARS-CoV-2 EC50
[22] = TOA EC50 / HeLa-ACE2 SARS-CoV-2 EC50
[23] = curve plateau at infinite concentration

SMILES	EC50 (HeLa-ACE2 cells [1])	HEK293T 72-hour cytotoxicty Sinf Average (HEK293T [2]; 72 h)	CC50 at 48 h (in vitro)	uninfected Calu-3 CC50 (Calu-3 cells [3])	Calu-3 uninfected cytotoxicity Sinf Average (Calu-3 cells [3])	Emax (SARS-CoV-2 [4])	EC50 (SARS-CoV-2 [4]; [19])	HeLa-ACE2 SI (SARS-CoV-2 [4]; [20])	EC50 (Calu-3 cells [5])	EC50 (HeLa-ACE2 cells [6])	EC50 (SARS-CoV-2 [7])	CC50 at 24 h [8]	HeLa-ACE2 uninfected cytotoxicity Sinf Average (HeLa-ACE2 cells [9])	HepG2 72-hour cytotoxicity Sinf Average (HepG2 [10]; 72 h)	Emax (SARS-CoV-2 [11])	EC50 (SARS-CoV-2 [11])	TOA:HeLa-ACE2 EC50 Ratio (SARS-CoV-2 [11]; [22])	HepG2 72-hour cytotoxicity Sinf Average (HepG2 [13])	HEK293T 72-hour cytotoxicty Sinf Average (HEK293T [14])	HeLa-ACE2 SI (SARS-CoV-2 [4])	also measured
N#Cc1ccc2c(c1)[C@H]1CN(CCCCNC(=O)c3ccc(-c4ccccc4)cc3)C[C@@H]1CO2 [S-33084]	> 9.59 µM	-100%	> 22.8 µM	> 22.75 ×÷ 1.601 (n=3) μM	-100%	100%	3.91 µM	> 6.34	> 9.98 µM	> 9.59 µM	> 9.98 µM	> 24.8 µM	-100%	-100%	100%	3.93 µM	1.005	–	–	–	Calu-3 SI (SARS-CoV-2 [7]; [21]): 2.28
CN1[C@@H]2CC[C@H]1C[C@@H](N1Cc3ccc4ccccc4c3C1=O)C2 [CR-3124]	> 9.59 µM	–	–	–	–	100%	5.97 µM	–	> 9.98 µM	> 9.59 µM	> 9.98 µM	> 39.8 µM	-100%	–	100%	> 9.59 µM	1.607	-100%	-100%	> 6.67	Calu-3 uninfected cytotoxicity Sinf Average (Calu-3 cells [12]): -100%; CC50 (in vitro; detail block): > 29.9 µM
CCN(CC)Cc1cc(Nc2ccnc3cc(Cl)ccc23)ccc1O [Amodiaquine]	> 0.865 µM	–	–	–	–	102%	1.19 µM	> 33.48	> 9.85 µM	> 9.59 µM	> 9.85 µM	> 39.8 µM	-89%	–	–	> 9.59 µM	–	-80%	-87%	–	Emax (HeLa-ACE2 cells [1]): -26%; CC50 at 72 h [15]: 3.76 µM; CC50 at 72 h [16]: 10 µM; TOA:HeLa-ACE2 EC50 Ratio (SARS-CoV-2 [11]): 8.060
CCN(CC)CCCC(C)Nc1ccnc2cc(Cl)ccc12 (stereo not drawn) [Chloroquine, DualTPharma, Chloroquine]	> 9.59 µM	–	–	–	–	107%	0.9 µM	–	> 9.85 µM	> 9.59 µM	> 9.85 µM	> 39.8 µM	-100%	–	–	> 9.59 µM	–	–	–	–	HEK293T 72-hour cytotoxicty Sinf Average (HEK293T [2]): -100%; HepG2 72-hour cytotoxicity Sinf Average (HepG2 [10]): -100%
CCc1ccc2c(c1)N(CC(C)CN(C)C)c1ccccc1S2 (stereo not drawn) [Ethylisobutrazine hydrochloride]	> 9.59 µM	–	–	–	–	100%	2 µM	10.48	> 9.98 µM	> 9.59 µM	> 9.98 µM	20.9 µM	-100%	–	100%	3.77 µM	–	-100%	-104%	–	CC50 at 48 h [17]: 15.7 µM; Calu-3 uninfected cytotoxicity Sinf Average (Calu-3 cells [12]): -100%; Emax (HeLa-ACE2 cells [1]): 100%; CC50 at 72 h [15]: 14.1 µM; CC50 at 72 h [16]: 10.3 µM; Emax (SARS-CoV-2 [7]; [23]): 100%; Calu-3 SI (SARS-CoV-2 [7]; [21]): 1.57; TOA:HeLa-ACE2 EC50 Ratio (SARS-CoV-2 [11]): 1.889
CN1CCN(c2ccc(C(=O)NCc3cnc(C#N)nc3NCC(C)(C)C)cc2)CC1 [Dutacatib]	> 9.59 µM	-100%	> 29.9 µM	> 29.867 ×÷ 1.001 (n=3) μM	-100%	101%	2.69 µM	> 13.43	> 9.98 µM	> 9.59 µM	> 9.98 µM	> 36.1 µM	-100%	-100%	100%	> 9.36 µM	3.480	–	–	–	HeLa-ACE2 synergy score with remdesivi (SARS-CoV-2 [18]): 2.955 δ; Emax (Calu-3 cells [5]): 100%; Emax (SARS-CoV-2 [7]; [23]): 96%
COc1ccc2cc1Oc1ccc(cc1)C[C@H]1c3cc(c(OC)cc3CCN1C)Oc1c(OC)c(OC)cc3c1[C@H](C2)N(C)CC3 [Hanfangchin A]	> 9.21 µM	–	–	–	–	100%	–	–	> 9.98 µM	> 9.59 µM	> 9.98 µM	> 18.9 µM	-99%	–	100%	> 9.41 µM	–	-105%	-101%	> 16.08	CC50 at 48 h [17]: 15.2 µM; Calu-3 uninfected cytotoxicity Sinf Average (Calu-3 cells [12]): -100%; Emax (HeLa-ACE2 cells [1]): 100%; CC50 at 72 h [15]: 2.28 µM; CC50 at 72 h [16]: 3.6 µM; EC50 (SARS-CoV-2 [4]; Severe acute respiratory syndrome coronavirus 2, HeLa-ACE2, read-out: HeLa-ACE2 CoV-2 EC50 GeoMean, detail block): 1.18 µM; Calu-3 SI (SARS-CoV-2 [7]): 1.53; Emax (SARS-CoV-2 [7]): 87%; TOA:HeLa-ACE2 EC50 Ratio (SARS-CoV-2 [11]): 7.993
O=C(CCCN1CCN(c2ccc(F)cc2)CC1)NC1c2ccccc2CSc2ccccc21 (stereo not drawn) [Monatepil]	> 9.6 µM	-46%	> 29.9 µM	> 29.9 ×÷ 1.002 (n=4) μM	-100%	100%	> 7.79 µM	> 5.01	> 9.98 µM	> 9.61 µM	> 9.98 µM	> 39 µM	-100%	–	100%	5.71 µM	0.732	–	–	–	Emax (Calu-3 cells [5]): -100%; Emax (SARS-CoV-2 [7]; [23]): 100%
N#Cc1c(N)nc(N)nc1N[C@H](c1nc2c(F)ccc(Cl)c2c(=O)n1-c1cccnc1)C1CC1 [GS-9901]	> 9.59 µM	-97%	> 29.9 µM	> 29.867 ×÷ 1.001 (n=3) μM	–	100%	3.81 µM	–	> 9.98 µM	> 9.59 µM	> 9.98 µM	> 31.1 µM	-100%	-100%	–	> 9.59 µM	2.519	–	–	> 8.17	Emax (HeLa-ACE2 cells [1]): 100%; Emax (Calu-3 cells [5]): -100%
COc1ccc2cc1Oc1ccc(cc1)C[C@H]1c3c(cc4c(c3Oc3cc5c(cc3OC)CCN(C)[C@@H]5C2)OCO4)CCN1C [Cepharanthine]	> 9.59 µM	-103%	> 27.8 µM	> 27.816 ×÷ 1.096 (n=3) μM	-100%	98%	0.988 µM	–	> 9.98 µM	> 9.59 µM	> 9.98 µM	> 25.4 µM	-100%	-100%	100%	> 9.5 µM	9.613	–	–	> 25.76	Calu-3 SI (SARS-CoV-2 [7]): 2.79
COC(CNCC(C)C)COc1c(C)csc1C(=O)CCc1ccccc1 (stereo not drawn) [LG-6-101]	> 9.59 µM	-100%	> 29.1 µM	> 29.079 ×÷ 1.048 (n=3) μM	-100%	100%	3.46 µM	–	> 9.98 µM	> 9.59 µM	> 9.98 µM	> 35.6 µM	-100%	-100%	100%	> 9.18 µM	2.655	–	–	–	Emax (Calu-3 cells [5]): 100%; Emax (SARS-CoV-2 [7]; [23]): 83%; Calu-3 SI (SARS-CoV-2 [7]; [21]): 2.91
